Measurements: patent publication US12484575B2, “Mosquito egg cryopreservation” (Sanaria Inc., priority 2019, dated 2025)

Experiments:
[1] = system: Anopheles eggs; experiment: Evaluation of low molecular weight CPAs and CPA concentrations for toxicity and egg viability; type: in vivo, Anopheles stephensi
Method: (§1) CPA was contained in a polypropylene 19 mm diameter×19 mm deep paint mixing pot (Michaels 10271583) embedded in a custom aluminum block machined to cover a Peltier-cooled block (Torrey Pines Scientific, IC22XT). CPA was equilibrated to temperature for >2 h prior to addition of eggs for the first incubation step at −6.8° C. Temperature was monitored using a digital thermometer with type-T thermocouple probe in a control sample in the block. Several relatively low molecular weight CPAs were evaluated at different concentrations for toxicity by incubation at 0° C. for up to 15 minutes, including: dimethylacetamide, dimethylformamide, dimethyl sulphoxide, ethanol, ethylene glycol, formamide, glycerol, H4-methanol (also referred to herein as “methanol”), D4 (deuterated)-methanol, D4/^13C-methanol, methylacetamide, propanediol, (sourced from SigmaAldrich); combinations in different ratios were also evaluated.
Percentages (v/v) of methanol and D4-methanol in water solutions were evaluated at between 50% and 100% aqueous CPA, namely, 50%, 70%, and 90%, and compared to CPA concentrations of 100%.

[2] = ambient temperatures; cited from earlier work
[3] = system: An. stephensi SD500 mosquito eggs; experiment: Hatch rate of An. stephensi eggs after two-step CPA incubation, plunge into LN2 and thawing/dilution; type: in vivo, Anopheles stephensi; conditions: for Average ranked score of hatch rates (1 best to 4): thirteen experiments
Method: as §1

[4] = system: larvae of An. gambiae; conditions: used with common methodologies; cited from earlier work
[5] = system: Anopheles eggs; conditions: 100% methanol, 20 minutes at −11° C., after subsequent cooling and warming/dilution
Method: Control eggs warmed/diluted from −11° C. (“Control”); eggs subsequently cooled in LN2 (“LN2”) before warming/dilution.
Once the first larval hatching was recorded, subsequent experiments recorded the percentage of larval hatch rate (number of larvae×100/number of eggs in the Petri dish) on day-3 post-thaw, and this was used as the measure of survival. In experiments measuring full development, the hatched larvae were fed standard larval food, pupae were harvested and transferred to rearing pans in 300×300×300 mm cages for adult mosquito emergence.

[6] = system: An. gambiae embryos; conditions: used as permeabilization reagents; cited from earlier work
[7] = 100% CPA, compared with 50%, 70%, 90%

Row | SMILES | Viability of eggs [1, 7] | Viability of eggs ([1]; CPA at 50% v/v in water) | Result among the CPAs evaluated ([1]; comparison of low molecular weight CPAs) | Viscosity increase relative to H4-methanol [2] | Average ranked score of hatch rates (1 best to 4) ([3]; LN2 plunge boiling −196° C.) | Average ranked score of hatch rates (1 best to 4) ([3]; LN2 plunge chilled −202° C.) | Hatch rates versus methanol ([3]; coupled with cooling by plunge into chilled LN2) | Tolerance by and permeation of untreated eggs ([1]; untreated Anopheles eggs) | Toxicity to larvae [4] | Proportion of eggs hatched [5] [%] | Toxicity to embryos [6]
1 | [2H]OC([2H])([2H])[2H] [D4-Methanol, D4-methanol] | highest | a small percentage of viable eggs | best results | approximately 11% | 2.47 | 2.20 | marginally improved hatch rates |  |  |  | 
2 | CO [Methanol, methanol] | highest | a small percentage of viable eggs |  |  | 2.87 | 2.27 |  | tolerated by, and to permeate, untreated Anopheles eggs | highly toxic | 15.3±4.3 | 
3 | OCCO [ethylene glycol, reference compound] |  |  |  |  |  |  |  |  | highly toxic |  | 
4 | CCCCCCC [heptane] |  |  |  |  |  |  |  |  |  |  | extremely toxic to the embryos
